Test: 3,4,3-LI(1,2-HOPO)-excipient compatibility study (visual observation, HPLC purity and impurities on storage)
Format: physicochemical
Conditions: for 3L1O Purity / Total Impurities: n = 1
Description: The objective of the analytical study described in this report was to evaluate the interactions between 3,4,3-L1(1,2-HOPO) and selected pharmaceutical excipients under 25° C./60% RH and 40° C./75% RH conditions over eight weeks. Physical appearance and potency of the different samples were assessed at T=0, 2, 4, and 8 weeks through visual observations and high performance liquid chromatography (HPLC) analysis.
The stability of 3,4,3-L1(1,2-HOPO) was tested according to the conditions listed below in TABLE 1.1. A11 test samples were stored throughout the study in 40 mL clear USP Type 1 glass vials (28 mm OD×95 mm height; 24 mm screw cap), wrapped in aluminum foil.
• Test Samples: Each test mixture was prepared by weighing the desired quantity of 3,4,3-L1(1,2-HOPO) and excipient (both screened through sieve #40) into vials. Both ingredients were first mixed using a clean glass rod and then vortexed. At each time interval, one vial was withdrawn from each drug-excipient series along with the corresponding placebo preparation and tested as described below.
b. Sample Characterization • Visual Observation: For each sample solution, visual observation consisted in recording color and physical form.
c. Chromatographic Assay and Purity Assessment • Standard Stock Solutions: For each standard stock solutions, the test article was weighed (200 mg) and dissolved by sonication into 30 mL of diluent (water:acetonitrile=90%:10%). After equilibration at room temperature, the volume of the standard solution was adjusted to 50 mL. Standard stock solutions were prepared in duplicates, working standard solutions were prepared by dilution of each stock with the diluent to the desired concentrations. • Calibration Standards: With each experiment, 5 calibration standard solutions at different concentrations were prepared from stock solutions using the diluent. Concentrations of the calibration standards were between 1.6 and 2.4 mg/mL. […] The vials were then mechanically shaken for 15 minutes, followed by centrifugation of the sample solutions (10,000 rpm, 10 min), and the supernatants were used for the assay. • Placebo Preparation: 25 mL of diluent was added to each of the placebo vial. The vials were then mechanically shaken for 15 minutes, followed by centrifugation of the sample solutions (10,000 rpm, 10 min), and the supernatants were used for the assay. Analytical Method: Instrument: Waters Alliance 2695 liquid chromatography system Column: Agilent, Eclipse XDB-C18, 4.6×150 mm, 5 μm. Mobile Phase A: 0.05% formic acid in 95% H2O: 5% ACN Mobile Phase B: 0.05% formic acid in acetonitrile (ACN)
Column Temperature: 25° C. Flow Rate: 1.0 mL/min. Injection Volume: 10 μL Detection: 250 nm Run Time: 50 min Diluent: 9:1 H2O:ACN Analysis Sequence:
• Suitability Requirements: There should be no interference from the diluent/blank at the retention times of 3,4,3-L1(1,2-HOPO) peaks. The relative standard deviation (% RSD) for five replicate system suitability injections should be below 2.0%. The response factor of the second standard should be within 95-105%. The correlation coefficient (R2) of the system linearity standards should be higher than 0.990. 5. Results

## O=C(NCCCN(CCCCN(CCCNC(=O)c1cccc(=O)n1O)C(=O)c1cccc(=O)n1O)C(=O)c1cccc(=O)n1O)c1cccc(=O)n1O [3,4,3-L1(1,2-HOPO)]
25° C./60% RH and 40° C./75% RH, over 8 weeks
  Stability of 3,4,3-L1(1,2-HOPO): stable over 8 weeks
25° C./60% RH, 2 Weeks
  Unknown Impurity RRT 0.24: 0.03 % w/w
  Unknown Impurity RRT 0.58: 0.05 % w/w
  Unknown Impurity RRT 0.59: 0.05 % w/w
  Unknown Impurity RRT 0.62: 0.05 % w/w
  Unknown Impurity RRT 0.87: 0.12 % w/w
  Unknown Impurity RRT 0.89: 0.03 % w/w
  Unknown Impurity RRT 1.02: 0.08 % w/w
  Unknown Impurity RRT 1.11: 0.05 % w/w
  Unknown Impurity RRT 1.27: 0.36 % w/w
  Unknown Impurity RRT 1.3: 0.22 % w/w
  Unknown Impurity RRT 1.39: 0.07 % w/w
  Unknown Impurity RRT 1.41: 0.03 % w/w
  Unknown Impurity RRT 1.46: 0.08 % w/w
  Unknown Impurity RRT 2.31: 0.05 % w/w
  Unknown Impurity RRT 2.6: 0.04 % w/w
  Unknown Impurity RRT 2.8: 0.03 % w/w
  3L1O Purity: 98.67 % Area
  Total Impurities: 1.33 % Area
25° C./60% RH, 4 weeks
  Unknown Impurity RRT 0.24: 0.03 % w/w
  Unknown Impurity RRT 0.58: 0.07 % w/w
  Unknown Impurity RRT 0.6: 0.05 % w/w
  Unknown Impurity RRT 0.62: 0.05 % w/w
  Unknown Impurity RRT 0.87: 0.14 % w/w
  Unknown Impurity RRT 0.89: 0.02 % w/w
  Unknown Impurity RRT 1.03: 0.04 % w/w
  Unknown Impurity RRT 1.11: 0.05 % w/w
  Unknown Impurity RRT 1.27: 0.28 % w/w
  Unknown Impurity RRT 1.3: 0.26 % w/w
  Unknown Impurity RRT 1.39: 0.07 % w/w
  Unknown Impurity RRT 1.41: 0.01 % w/w
  Unknown Impurity RRT 1.46: 0.09 % w/w
  Unknown Impurity RRT 1.72: 0.05 % w/w
  Unknown Impurity RRT 2.3: 0.05 % w/w
  Unknown Impurity RRT 2.59: 0.04 % w/w
  Unknown Impurity RRT 2.79: 0.03 % w/w
  3L1O Purity: 98.66 % Area
  Total Impurities: 1.34 % Area
25° C./60% RH, 8 Weeks
  Unknown Impurity RRT 0.24: 0.04 % w/w
  Unknown Impurity RRT 0.58: 0.07 % w/w
  Unknown Impurity RRT 0.59: 0.05 % w/w
  Unknown Impurity RRT 0.62: 0.06 % w/w
  Unknown Impurity RRT 0.87: 0.15 % w/w
  Unknown Impurity RRT 0.89: 0.02 % w/w
  Unknown Impurity RRT 1.03: 0.08 % w/w
  Unknown Impurity RRT 1.11: 0.05 % w/w
  Unknown Impurity RRT 1.27: 0.41 % w/w
  Unknown Impurity RRT 1.3: 0.23 % w/w
  Unknown Impurity RRT 1.39: 0.07 % w/w
  Unknown Impurity RRT 1.41: 0.01 % w/w
  Unknown Impurity RRT 1.46: 0.09 % w/w
  Unknown Impurity RRT 1.73: 0.06 % w/w
  Unknown Impurity RRT 2.31: 0.07 % w/w
  Unknown Impurity RRT 2.6: 0.05 % w/w
  Unknown Impurity RRT 2.8: 0.03 % w/w
  3L1O Purity: 98.47 % Area
  Total Impurities: 1.53 % Area
40° C./75% RH, 2 Weeks
  Unknown Impurity RRT 0.24: 0.06 % w/w
  Unknown Impurity RRT 0.58: 0.07 % w/w
  Unknown Impurity RRT 0.59: 0.06 % w/w
  Unknown Impurity RRT 0.62: 0.06 % w/w
  Unknown Impurity RRT 0.81: 0.02 % w/w
  Unknown Impurity RRT 0.87: 0.13 % w/w
  Unknown Impurity RRT 0.89: 0.07 % w/w
  Unknown Impurity RRT 1.02: 0.07 % w/w
  Unknown Impurity RRT 1.11: 0.06 % w/w
  Unknown Impurity RRT 1.27: 0.36 % w/w
  Unknown Impurity RRT 1.3: 0.16 % w/w
  Unknown Impurity RRT 1.39: 0.05 % w/w
  Unknown Impurity RRT 1.41: 0.01 % w/w
  Unknown Impurity RRT 1.46: 0.07 % w/w
  Unknown Impurity RRT 2.31: 0.05 % w/w
  Unknown Impurity RRT 2.59: 0.04 % w/w
  Unknown Impurity RRT 2.8: 0.03 % w/w
  3L1O Purity: 98.62 % Area
  Total Impurities: 1.38 % Area
40° C./75% RH, 4 weeks
  Unknown Impurity RRT 0.24: 0.05 % w/w
  Unknown Impurity RRT 0.58: 0.09 % w/w
  Unknown Impurity RRT 0.6: 0.06 % w/w
  Unknown Impurity RRT 0.62: 0.07 % w/w
  Unknown Impurity RRT 0.81: 0.02 % w/w
  Unknown Impurity RRT 0.87: 0.16 % w/w
  Unknown Impurity RRT 0.89: 0.03 % w/w
  Unknown Impurity RRT 1.02: 0.03 % w/w
  Unknown Impurity RRT 1.11: 0.06 % w/w
  Unknown Impurity RRT 1.27: 0.26 % w/w
  Unknown Impurity RRT 1.3: 0.2 % w/w
  Unknown Impurity RRT 1.39: 0.74 % w/w
  Unknown Impurity RRT 1.41: 0.01 % w/w
  Unknown Impurity RRT 1.46: 0.08 % w/w
  Unknown Impurity RRT 1.72: 0.09 % w/w
  Unknown Impurity RRT 2.3: 0.04 % w/w
  Unknown Impurity RRT 2.59: 0.03 % w/w
  Unknown Impurity RRT 2.79: 0.02 % w/w
  3L1O Purity: 98.63 % Area
  Total Impurities: 1.37 % Area
40° C./75% RH, 8 Weeks
  Unknown Impurity RRT 0.24: 0.34 % w/w
  Unknown Impurity RRT 0.58: 0.2 % w/w
  Unknown Impurity RRT 0.59: 0.16 % w/w
  Unknown Impurity RRT 0.62: 0.18 % w/w
  Unknown Impurity RRT 0.81: 0.05 % w/w
  Unknown Impurity RRT 0.87: 0.18 % w/w
  Unknown Impurity RRT 0.89: 0.32 % w/w
  Unknown Impurity RRT 0.91: 0.11 % w/w
  Unknown Impurity RRT 0.95: 0.04 % w/w
  Unknown Impurity RRT 1.02: 0.09 % w/w
  Unknown Impurity RRT 1.12: 0.05 % w/w
  Unknown Impurity RRT 1.27: 0.4 % w/w
  Unknown Impurity RRT 1.31: 0.01 % w/w
  Unknown Impurity RRT 1.39: 0.08 % w/w
  Unknown Impurity RRT 1.41: 0 % w/w
  Unknown Impurity RRT 1.46: 0.12 % w/w
  Unknown Impurity RRT 1.72: 0.1 % w/w
  Unknown Impurity RRT 2.31: 0.03 % w/w
  Unknown Impurity RRT 2.6: 0.02 % w/w
  Unknown Impurity RRT 2.8: 0.02 % w/w
  3L1O Purity: 97.49 % Area
  Total Impurities: 2.51 % Area
Initial (T = 0)
  Unknown Impurity RRT 0.58: 0.05 % w/w
  Unknown Impurity RRT 0.59: 0.04 % w/w
  Unknown Impurity RRT 0.62: 0.04 % w/w
  Unknown Impurity RRT 0.87: 0.1 % w/w
  Unknown Impurity RRT 0.89: 0.02 % w/w
  Unknown Impurity RRT 1.03: 0.21 % w/w
  Unknown Impurity RRT 1.11: 0.04 % w/w
  Unknown Impurity RRT 1.27: 0.29 % w/w
  Unknown Impurity RRT 1.3: 0.21 % w/w
  Unknown Impurity RRT 1.39: 0.09 % w/w
  Unknown Impurity RRT 1.41: 0.01 % w/w
  Unknown Impurity RRT 1.46: 0.11 % w/w
  Unknown Impurity RRT 2.31: 0.05 % w/w
  3L1O Purity: 98.73 % Area
  Total Impurities: 1.27 % Area

Reference: patent US11684614B2, “Formulations of hydroxypyridonate actinide/lanthanide decorporation agents” (priority 2017, dated 2023)
